Experimental data taken from patent publication US8637684B2, “Tautomycetin and tautomycetin analog biosynthesis” (Wisconsin Alumni Research Foundation, priority 2010, dated 2014).
Like-named read-outs stand apart in the source and are kept apart here.

Legend:
[1] = target: T1, Cdc14A (Homo sapiens, UniProt Q9UNH5); test: PTP activity assay with pNPP as substrate: Cdc14A; type: biochemical; details: pNPP as substrate at Km, pH 7.0, 25° C., I = 0.15 M
T1 sequence (Q9UNH5 1-594): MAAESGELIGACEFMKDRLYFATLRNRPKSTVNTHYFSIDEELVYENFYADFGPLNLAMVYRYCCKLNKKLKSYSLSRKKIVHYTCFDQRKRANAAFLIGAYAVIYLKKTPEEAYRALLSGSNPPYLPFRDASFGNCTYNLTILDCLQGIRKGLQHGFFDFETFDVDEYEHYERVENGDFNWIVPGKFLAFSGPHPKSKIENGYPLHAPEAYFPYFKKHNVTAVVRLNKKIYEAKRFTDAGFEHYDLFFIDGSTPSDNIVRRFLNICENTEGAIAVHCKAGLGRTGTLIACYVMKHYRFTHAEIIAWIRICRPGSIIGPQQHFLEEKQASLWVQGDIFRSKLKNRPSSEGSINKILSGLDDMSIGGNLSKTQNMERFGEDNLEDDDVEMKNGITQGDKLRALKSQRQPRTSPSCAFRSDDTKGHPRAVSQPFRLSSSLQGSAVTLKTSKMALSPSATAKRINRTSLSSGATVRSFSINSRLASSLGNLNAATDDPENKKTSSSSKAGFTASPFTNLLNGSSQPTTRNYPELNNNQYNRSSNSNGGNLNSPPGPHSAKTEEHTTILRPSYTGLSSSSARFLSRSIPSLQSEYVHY
Procedure: The PTP activity was assayed using pNPP as a substrate at 25° C. in 50 mM 3,3-dimethylglutarate buffer, pH 7.0, containing 1 mM EDTA with an ionic strength of 0.15 M adjusted by NaCl. TTM, TTN and the engineered analogs were analyzed for inhibition of a panel of PTPs at 10 μM compound concentration. For each enzyme screened, test compounds were diluted to 20 μM in 100 μL and combined with 50 μL pNPP at a concentration of 4×Km. The reaction was initiated by the addition of 50 μL of 4× concentrated enzyme and pNPP was allowed to convert to the product p-nitrophenol. The reaction was quenched by the addition of 50 μL of 5N NaOH. Nonenzymatic hydrolysis of pNPP was corrected by measuring the control without the addition of enzyme. Production of p-nitrophenol was monitored by a Spectra MAX385 microplate spectrophotometer (Molecular Devices) at 405 nm using a molar extinction coefficient of 18,000 M^−1 cm^−1. IC50 values were calculated by fitting the absorbance at 405 nm versus inhibitor concentration to the following equation: AI/A0=IC50/(IC50+[I]) where AI is the absorbance at 405 nm of the sample in the presence of inhibitor; Ao is the absorbance at 405 nm in the absence of inhibitor; and [I] is the concentration of the inhibitor.

[2] = test system: TCR-mediated tyrosine phosphorylation in Jurkat T cells; test: Anti-CD3 (TCR) induced tyrosine phosphorylation in Jurkat T cells, immunoblot; type: cell-based; details: 2-4 μM, 2 hours pretreatment, anti-CD3 stimulation
Procedure: Jurkat T cells were grown at 37° C. under an atmosphere of 5% CO2 in RPMI medium 1640 supplemented with 10% FBS. Cells were pretreated with different concentrations of TTN, TTN D-1, or TTM for 2 hours and stimulated with […] anti-CD3 antibody (OKT3; eBioscience) for 5 min and 30 min, respectively. Subsequently, cells were spinned down at 2000 rpm in 4° C., and cell pellets were lysed in 50 mM Tris-HCl (pH 7.5), 150 mM NaCl, 10% glycerol, 1% NP-40, 50 mM NaF, 10 mM pyrophosphate, 5 mM idoacetate, 1 mM sodium orthovanadate, and the protease inhibitor mixture. After 30 min lysing on ice, the cell lysates were centrifuged at 13,200 rpm for 15 min. Total cellular proteins were separated by SDS/PAGE and transferred electrophoretically to nitrocellulose membrane, which was immunoblotted by appropriate antibodies followed by incubation with HRP-conjugated secondary antibodies. Blots were developed using Pierce Pico ECL reagent (Thermo) according to the manufacturer's instructions.
TTN induces immunosuppression by suppression of TCR-mediated tyrosine phosphorylation and ERK1/2 activity in T cells (Shim et al., 2002). However, the mechanism of action for TTN's ability to block TCR signaling remains undefined. […]

[3] = test system: SHP2/E76K-expressing hematopoietic progenitors; test: 3H-thymidine incorporation assay of transduced bone marrow LDMNCs with GM-CSF; type: cell-based; details: 2 μM TTN for 24 hrs, GM-CSF 1 ng/mL
Procedure: Transduced, EGFP+ cells were subjected to ^3H-thymidine incorporation assays, as previously described (Munugalavadla et al., 2007), or plated at a concentration of 8000 cells/mL in 0.9% methylcellulose-based media containing IMDM, 2 mM glutamine, 1% penicillin/streptomycin, 80 μM β-mercaptoethanol, 30% FBS, and GM-CSF 1 ng/mL or with saturating concentrations of growth factors including IL-3 200 U/mL, erythropoietin 4 U/mL, and stem cell factor (SCF) 100 ng/mL. All growth factors were from Peprotech. Cultures were incubated in a humidified incubator at 37° C. in 5% CO2 for 7 days and were scored for total colonies and for morphology to determine colony forming unit (CFU)-granulocyte-macrophage (GM) or CFU-monocyte (M).
For biochemical studies, macrophage progenitor cells expressing empty vector (MIEG3), wild-type SHP2, or SHP2/E76K were serum- and growth factor-deprived for 24 hours. Cells were pre-treated with DMSO or 2 μM TTN for 2 hours, and then cultures either remained unstimulated or were stimulated with GM-CSF at 50 ng/mL for 60 minutes. […] To provide further evidence that SHP2 is a molecular target of TTN, the inventors determined the X-ray crystal structure of SHP2 in complex with TTN D-1, as crystallization attempts for the SHP2-TTN complex were unsuccessful. […]

[4] = test system: human primary T-cell tyrosine phosphorylation; details: Shim et al., 2002, cited from earlier work
[5] = literature (Luo et al., 2007; Mitsuhashi et al., 2003, 2008); cited from earlier work

tautomycetin [TTN]
IC50 [1]: > 50 µM
effect on TCR-mediated tyrosine phosphorylation [2]: efficiently attenuated
effect on GM-CSF-stimulated proliferation of SHP2/E76K-expressing progenitors [3]: effectively reduced the proliferation
concentration inhibiting human primary T-cell tyrosine phosphorylation [4]: 1 µg/mL
concentration inhibiting human primary T-cell tyrosine phosphorylation ([4]; same value converted): 1.65 µM
concentrations required to exert a cellular effect [5]: 1 to 5 µM
